Test results as given in patent US8754209B2, “Indazole derivatives or pharmaceutically acceptable salts thereof as protein kinase inhibitors for proliferative diseases treatment, and a pharmaceutical composition containing the same as an active ingredient” (Korea Institute of Science and Technology, priority 2009, dated 2014).

System: A375P cells
Test: Anti-proliferative activity on A375P cell line (MTT assay)
Assay type: cell-based
Conditions: A375P human melanoma cell line
Procedure: A375P cells were purchased from American Type Culture Collection (ATCC, Rockville, Md., US) and maintained in DMEM medium (Welgene, Daegu, Korea) supplemented with 10% FBS (Welgene) and 1% penicillin/streptomycin (Welgene) in a humidified atmosphere with 5% CO2 at 37° C. The A375P cells were taken from culture substrate with 0.05% trypsin-0.02% EDTA and plated at a density of 5×10^3 cells/well in 96 well plates and then incubated at 37° C. for 24 h in a humidified atmosphere with 5% CO2 prior to treatment of various concentration (three fold serial dilution, 12 points) of test compounds. The A357P cell viability was assessed by the conventional 3-(4,5-dimethylthiazol-2-yl)-2,5-diphenyltetrazolium bromide (MTT) reduction assay. MTT assays were carried out with CellTiter 96 (Promega) according to the manufacturer's instructions.
After 1 day, 0.5 μl the representative compounds of the examples were added thereto. The representative compounds of the examples were prepared by three fold serial dilution of 10 mM stock solution in DMSO, 12 point (final conc. DMSO 0.5%). Then, 15 μl dye was added in each well. After 2 h, 100 μl stop solution was added each well. After 24 h, absorbance was measured. The absorbance at 590 nm was recorded using EnVision2103 (PerkinElmer; Boston, Mass., US). The IC50 value was calculated using GraphPad Prism 4.0 software.

GI50 [µM]	Structure (SMILES)
< 10	CCOC(=O)c1n[nH]c2cc(-c3ccc(NC(=O)c4cccc(C(F)(F)F)c4)cc3)ccc12 [Example 2, ethyl 6-(4-(3-(trifluoromethyl)benzamido)phenyl)-1H-indazole-3-carboxylate]
< 10	CCOC(=O)c1n[nH]c2cc(-c3ccc(NC(=O)c4ccnnc4)cc3)ccc12 [Example 10, ethyl 6-(4-(pyridazine-4-carboxamido)phenyl)-1H-indazole-3-carboxylate]
< 10	CCOC(=O)c1n[nH]c2cc(-c3ccc(NC(=O)Cc4ccc(OC)c(OC)c4)cc3)ccc12 [Example 11, ethyl 6-(4-(2-(3,4-dimethoxyphenyl)acetamido)phenyl)-1H-indazole-3-carboxylate]
< 10	CCOC(=O)c1n[nH]c2cc(-c3ccc(NC(=O)c4ccncc4Cl)cc3)ccc12 [Example 13, ethyl 6-(4-(3-chloroisonicotinamido)phenyl)-1H-indazole-3-carboxylate]
< 10	CCOC(=O)c1n[nH]c2cc(-c3ccc(NC(=O)c4ccc(OC)c5ccc(OC)cc45)cc3)ccc12 [Example 15, ethyl 6-(4-(4,7-dimethoxy-1-naphthamido)phenyl)-1H-indazole-3-carboxylate]
< 10	CCOC(=O)c1n[nH]c2cc(-c3ccc(NC(=O)c4ccc(-c5cc(C(F)(F)F)ccc5Cl)o4)cc3)ccc12 [Example 16, ethyl 6-(4-(5-(2-chloro-5-(trifluoromethyl)phenyl)furan-2-carboxamido)phenyl)-1H-indazole-3-carboxylate]
< 10	CCOC(=O)c1n[nH]c2cc(-c3ccc(NC(=O)c4ccc(OC5CCN(C)CC5)c(C(F)(F)F)c4)cc3)ccc12 [Example 19, ethyl 6-(4-(4-(1-methylpiperidin-4-yloxy)-3-(trifluoromethyl)benzamido)phenyl)-1H-indazole-3-carboxylate]
< 10	CCOC(=O)c1n[nH]c2cc(-c3ccc(NC(=O)Nc4ccc(Cl)c(Cl)c4)cc3)ccc12 [Example 20, ethyl 6-(4-(3-(3,4-dichlorophenyl)ureido)phenyl)-1H-indazole-3-carboxylate]
< 10	CCOC(=O)c1n[nH]c2cc(-c3ccc(NC(=O)Nc4cc(C(F)(F)F)cc(C(F)(F)F)c4)cc3)ccc12 [Example 22, ethyl 6-(4-(3-(3,5-bis(trifluoromethyl)phenyl)ureido)phenyl)-1H-indazole-3-carboxylate]
< 10	CCOC(=O)c1n[nH]c2cc(-c3ccc(NC(=O)Nc4cccc(C(F)(F)F)c4)cc3)ccc12 [Example 23, ethyl 6-(4-(3-(3-(trifluoromethyl)phenyl)ureido)phenyl)-1H-indazole-3-carboxylate]
< 10	CNC(=O)c1n[nH]c2cc(-c3ccc(NC(=O)c4ccc(-c5ccc(OC)cc5)o4)cc3)ccc12 [Example 25, 6-(4-(5-(4-methoxyphenyl)furan-2-carboxamido)phenyl)-N-methyl-1H-indazole-3-carboxamide]
< 10	CNC(=O)c1n[nH]c2cc(-c3ccc(NC(=O)c4ccc(Br)s4)cc3)ccc12 [Example 26, 6-(4-(5-bromothiophene-2-carboxamido)phenyl)-N-methyl-1H-indazole-3-carboxamide]
< 10	CNC(=O)c1n[nH]c2cc(-c3ccc(NC(=O)c4cc5ccccc5s4)cc3)ccc12 [Example 27, 6-(4-(benzo[b]thiophene-2-carboxamido)phenyl)-N-methyl-1H-indazole-3-carboxamide]
< 10	O=C(Nc1ccc(-c2ccc3c(C(=O)NCCN4CCOCC4)n[nH]c3c2)cc1)c1cccc(C(F)(F)F)c1 [Example 30, N-(2-morpholinoethyl)-6-(4-(3-(trifluoromethyl)benzamido)phenyl)-1H-indazole-3-carboxamide]
< 10	O=C(Nc1ccc(-c2ccc3c(C(=O)NCCN4CCOCC4)n[nH]c3c2)cc1)c1ccc(Br)s1 [Example 31, 6-(4-(5-bromothiophene-2-carboxamido)phenyl)-N-(2-morpholinoethyl)-1H-indazole-3-carboxamide]
< 10	O=C(Nc1ccc(-c2ccc3c(C(=O)NCCN4CCOCC4)n[nH]c3c2)cc1)c1cc2ccccc2s1 [Example 32, 6-(4-(benzo[b]thiophene-2-carboxamido)phenyl)-N-(2-morpholinoethyl)-1H-indazole-3-carboxamide]
< 10	Cc1cc(C(=O)Nc2ccc(-c3ccc4c(C(=O)NCCN5CCOCC5)n[nH]c4c3)cc2)c(C)o1 [Example 33, 6-(4-(2,5-dimethylfuran-3-carboxamido)phenyl)-N-(2-morpholinoethyl)-1H-indazole-3-carboxamide]
< 10	COc1ccc(-n2ncc(C(=O)Nc3ccc(-c4ccc5c(C(=O)NCCN6CCOCC6)n[nH]c5c4)cc3)c2C(F)(F)F)cc1 [Example 34, 6-(4-(1-(4-methoxyphenyl)-5-(trifluoromethyl)-1H-pyrazole-4-carboxamido)phenyl)-N-(2-morpholinoethyl)-1H-indazole-3-carboxamide]
< 10	O=C(Nc1ccc(-c2ccc3c(C(=O)Nc4cccc(C(F)(F)F)c4)n[nH]c3c2)cc1)c1ccc(Br)s1 [Example 35, 6-(4-(5-bromothiophene-2-carboxamido)phenyl)-N-(3-(trifluoromethyl)phenyl)-1H-indazole-3-carboxamide]
< 10	O=C(Nc1ccc(-c2ccc3c(C(=O)NCCN4CCOCC4)n[nH]c3c2)cc1)Nc1ccc(Cl)c(Cl)c1 [Example 36, 6-(4-(3-(3,4-dichlorophenyl)ureido)phenyl)-N-(2-morpholinoethyl)-1H-indazole-3-carboxamide]
< 10	CNC(=O)c1n[nH]c2cc(-c3ccc(NC(=O)c4cc(-n5cnc(C)c5)cc(C(F)(F)F)c4)cc3)ccc12 [Example 39, N-methyl-6-(4-(3-(4-methyl-1H-imidazol-1-yl)-5-(trifluoromethyl)benzamido)phenyl)-1H-indazole-3-carboxamide]
< 10	CNC(=O)c1n[nH]c2cc(-c3ccc(NC(=O)c4ccc(OC5CCN(C)CC5)c(C(F)(F)F)c4)cc3)ccc12 [Example 40, N-methyl-6-(4-(4-(1-methylpiperidin-4-yloxy)-3-(trifluoromethyl)benzamido)phenyl)-1H-indazole-3-carboxamide]
< 10	COC(=O)c1n[nH]c2ccc(-c3ccc(NC(=O)Nc4ccc(Cl)c(C(F)(F)F)c4)cc3)cc12 [Example 43, methyl 5-(4-(3-(4-chloro-3-(trifluoromethyl)phenyl)ureido)phenyl)-1H-indazole-3-carboxylate]
< 10	CCOC(=O)c1n[nH]c2cc(-c3cccc(NC(=O)c4cc(C)on4)c3)ccc12 [Example 46, ethyl 6-(3-(5-methylisoxazole-3-carboxamido)phenyl)-1H-indazole-3-carboxylate]
< 10	CCOC(=O)c1n[nH]c2cc(-c3cccc(NC(=O)c4cc5ccccc5s4)c3)ccc12 [Example 47, ethyl 6-(3-(benzo[b]thiophene-2-carboxamido)phenyl)-1H-indazole-3-carboxylate]
< 10	CCOC(=O)c1n[nH]c2cc(-c3cccc(NC(=O)c4ccc(Br)s4)c3)ccc12 [Example 49, ethyl 6-(3-(5-bromothiophene-2-carboxamido)phenyl)-1H-indazole-3-carboxylate]
< 10	COC(=O)c1n[nH]c2cc(-c3cccc(NC(=O)c4cc(N5CCOCC5)cc(C(F)(F)F)c4)c3)ccc12 [Example 52, methyl 6-(3-(3-morpholino-5-(trifluoromethyl)benzamido)phenyl)-1H-indazole-3-carboxylate]
